US20250250230A1, “HETEROCYCLIC COMPOUND” (TAKEDA PHARMACEUTICAL COMPANY LIMITED, priority 2022, published 2025)

Each molecule was assayed against T1, human orexin type 2 receptor (Homo sapiens, UniProt O43614) (assay: Measurement of orexin type 2 receptor agonist activity (calcium fluorescence, Fluo-4 AM, FDSS)). Settings: test compound 3 μM; CHO cells expressing human OX2 receptor; DMSO = 0%, orexin A (human) = 100%.
T1 construct: expressed in transfected cells
T1 sequence (O43614 1-444): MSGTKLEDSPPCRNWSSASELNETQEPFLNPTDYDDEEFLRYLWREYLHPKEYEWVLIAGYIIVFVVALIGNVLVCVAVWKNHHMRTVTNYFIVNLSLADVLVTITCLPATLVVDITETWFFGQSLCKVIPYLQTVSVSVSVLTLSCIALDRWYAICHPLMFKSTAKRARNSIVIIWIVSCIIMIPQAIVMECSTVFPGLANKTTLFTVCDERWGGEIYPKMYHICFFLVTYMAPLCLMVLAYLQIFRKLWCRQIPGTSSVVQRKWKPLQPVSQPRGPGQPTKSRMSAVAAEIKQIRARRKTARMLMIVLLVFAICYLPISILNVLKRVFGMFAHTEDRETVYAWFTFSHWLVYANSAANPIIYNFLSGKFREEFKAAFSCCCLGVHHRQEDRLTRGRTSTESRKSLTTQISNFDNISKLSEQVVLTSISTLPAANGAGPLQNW
Type: cell-based
How it was run: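 Agonist response scaled between vehicle (0%) and human orexin A at 10 nM final (100%), from 2-min kinetic Fluo-4 fluorescence reads. Stable hOX2R CHO-K1 clone, dye-loaded in HBSS/20 mM HEPES/0.1% BSA with 1.25 mM probenecid before compound addition.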

SMILES	OX2R agonist activity (3 μM, %) [%]
CS(=O)(=O)NC[C@@H]1[C@H](F)CN1C(=O)[C@@H]1C[C@@]1(F)c1ccc(F)cc1-c1c(F)cccc1F [Example 413, N-({(2R,3R)-3-fluoro-1-[(1S,2S)-2-fluoro-2-(2′,5,6′-trifluoro[1,1′-biphenyl]-2-yl)cyclopropane-1-carbonyl]azetidin-2-yl}methyl)methanesulfonamide]	109
CCS(=O)(=O)NC[C@@H]1[C@H](O)CN1C(=O)[C@@H]1C[C@@]1(F)c1ccccc1-c1c(F)cccc1F [Example 374, N-({(2R,3R)-1-[(1S,2S)-2-(2′,6′-difluoro[1,1′-biphenyl]-2-yl)-2-fluorocyclopropane-1-carbonyl]-3-hydroxyazetidin-2-yl}methyl)ethanesulfonamide]	98
CS(=O)(=O)NC[C@H]1[C@H](C(F)F)CN1C(=O)[C@@H]1C[C@@]1(F)c1ccccc1-c1c(F)cccc1F [Example 405, N-{[(2R,3R)-1-[(1S,2S)-2-(2′,6′-difluoro[1,1′-biphenyl]-2-yl)-2-fluorocyclopropane-1-carbonyl]-3-(difluoromethyl)azetidin-2-yl]methyl}methanesulfonamide]	96
CCS(=O)(=O)NC1CCCCN(C(=O)C2CC2c2ccccc2-c2c(F)cccc2F)C1 (racemic) [Example 159, a mixture of rac-N-{(3R)-1-[(1R,2R)-2-(2′,6′-difluoro[1,1′-biphenyl]-2-yl)cyclopropane-1-carbonyl]azepan-3-yl}ethanesulfonamide and rac-N-{(3S)-1-[(1R,2R)-2-(2′,6′-difluoro[1,1′-biphenyl]-2-yl)cyclopropane-1-carbonyl]azepan-3-yl}ethanesulfonamide]	101
CS(=O)(=O)NC[C@@H]1[C@H](CF)CN1C(=O)[C@@H]1C[C@@]1(F)c1ccccc1-c1c(F)cccc1F [Example 398, N-{[(2S,3R)-1-[(1S,2S)-2-(2′,6′-difluoro[1,1′-biphenyl]-2-yl)-2-fluorocyclopropane-1-carbonyl]-3-(fluoromethyl)azetidin-2-yl]methyl}methanesulfonamide]	97
CCCS(=O)(=O)NC[C@@H]1[C@H](F)CN1C(=O)[C@@H]1C[C@@]1(F)c1ccc(F)cc1-c1c(F)cccc1F [Example 433, N-({(2R,3R)-3-fluoro-1-[(1S,2S)-2-fluoro-2-(2′,5,6′-trifluoro[1,1′-biphenyl]-2-yl)cyclopropane-1-carbonyl]azetidin-2-yl}methyl)propane-1-sulfonamide]	95
CS(=O)(=O)N[C@@H](CO)C1CCN1C(=O)[C@@H]1C[C@@]1(F)c1ccccc1-c1c(F)cccc1F (stereo partly drawn) [Example 385, N-[(1R)-1-{(2R)-1-[(1S,2S)-2-(2′,6′-difluoro[1,1′-biphenyl]-2-yl)-2-fluorocyclopropane-1-carbonyl]azetidin-2-yl}-2-hydroxyethyl]methanesulfonamide, or N-[(1R)-1-{(2S)-1-[(1S,2S)-2-(2′,6′-difluoro[1,1′-biphenyl]-2-yl)-2-fluorocyclopropane-1-carbonyl]azetidin-2-yl}-2-hydroxyethyl]methanesulfonamide]	95
CS(=O)(=O)NC1C2CN(C(=O)[C@@H]3C[C@@]3(F)c3ccccc3-c3c(F)cccc3F)CC2CC1(F)F (stereo partly drawn) [Example 377, N-{(3aR,4S,6aS)-2-[(1S,2S)-2-(2′,6′-difluoro[1,1′-biphenyl]-2-yl)-2-fluorocyclopropane-1-carbonyl]-5,5-difluorooctahydrocyclopenta[c]pyrrol-4-yl}methanesulfonamide, or N-{(3aS,4R,6aR)-2-[(1S,2S)-2-(2′,6′-difluoro[1,1′-biphenyl]-2-yl)-2-fluorocyclopropane-1-carbonyl]-5,5-difluorooctahydrocyclopenta[c]pyrrol-4-yl}methanesulfonamide]	93
CS(=O)(=O)N[C@@H]1CN(C(=O)[C@@H]2C[C@H]2c2ccccc2-c2c(F)cccc2F)CC(F)(F)C1 [Example 271, N-{(3S)-1-[(1R,2R)-2-(2′,6′-difluoro[1,1′-biphenyl]-2-yl)cyclopropane-1-carbonyl]-5,5-difluoropiperidin-3-yl}methanesulfonamide]	87
CCS(=O)(=O)NC(C)[C@H]1CCN1C(=O)[C@@H]1C[C@H]1c1ccccc1-c1c(F)cccc1F (stereo partly drawn) [Example 361, N-[(1R)-1-{(2R)-1-[(1R,2R)-2-(2′,6′-difluoro[1,1′-biphenyl]-2-yl)cyclopropane-1-carbonyl]azetidin-2-yl}ethyl]ethanesulfonamide, or N-[(1S)-1-{(2R)-1-[(1R,2R)-2-(2′,6′-difluoro[1,1′-biphenyl]-2-yl)cyclopropane-1-carbonyl]azetidin-2-yl}ethyl]ethanesulfonamide]	90
CC1(C(=O)N2CC[C@H]2CNS(C)(=O)=O)CC1(F)c1ccccc1-c1c(F)cccc1F (stereo partly drawn) [Example 356, N-({(2S)-1-[(1R,2S)-2-(2′,6′-difluoro[1,1′-biphenyl]-2-yl)-2-fluoro-1-methylcyclopropane-1-carbonyl]azetidin-2-yl}methyl)methanesulfonamide, or N-({(2S)-1-[(1S,2R)-2-(2′,6′-difluoro[1,1′-biphenyl]-2-yl)-2-fluoro-1-methylcyclopropane-1-carbonyl]azetidin-2-yl}methyl)methanesulfonamide]	84

Now from value to molecule:

OX2R agonist activity (3 μM, %) [%]	SMILES
100	CS(=O)(=O)N[C@@H]1CN(C(=O)[C@@H]2C[C@H]2c2ccccc2-c2c(F)cccc2F)CC[C@H]1O [Example 269, N-{(3R,4R)-1-[(1R,2R)-2-(2′,6′-difluoro[1,1′-biphenyl]-2-yl)cyclopropane-1-carbonyl]-4-hydroxypiperidin-3-yl}methanesulfonamide]
96	Cc1ccc(C2CC2C(=O)N2CCCC(NS(C)(=O)=O)CC2)c(-c2c(F)cccc2F)c1 (racemic) [Example 167, a mixture of rac-N-{(4R)-1-[(1R,2R)-2-(2′,6′-difluoro-5-methyl[1,1′-biphenyl]-2-yl)cyclopropane-1-carbonyl]azepan-4-yl}methanesulfonamide and rac-N-{(4S)-1-[(1R,2R)-2-(2′,6′-difluoro-5-methyl[1,1′-biphenyl]-2-yl)cyclopropane-1-carbonyl]azepan-4-yl}methanesulfonamide]
101	CS(=O)(=O)N[C@H]1C[C@H](O)CN(C(=O)[C@@H]2C[C@H]2c2ccccc2-c2c(F)cccc2F)C1 [Example 319, N-{(3S,5S)-1-[(1R,2R)-2-(2′,6′-difluoro[1,1′-biphenyl]-2-yl)cyclopropane-1-carbonyl]-5-hydroxypiperidin-3-yl}methanesulfonamide]
91	Cc1scc(-c2c(F)cccc2F)c1C1CC1C(=O)N1CCC(NS(C)(=O)=O)C1 (racemic) [Example 329, a mixture of rac-N-[(3R)-1-{(1R,2R)-2-[4-(2,6-difluorophenyl)-2-methylthiophen-3-yl]cyclopropane-1-carbonyl}pyrrolidin-3-yl]methanesulfonamide and rac-N-[(3S)-1-{(1R,2R)-2-[4-(2,6-difluorophenyl)-2-methylthiophen-3-yl]cyclopropane-1-carbonyl}pyrrolidin-3-yl]methanesulfonamide]
110	Cc1ccc(C2CC2C(=O)N2CCC(NS(C)(=O)=O)C2)c(-c2c(F)cccc2F)c1 (racemic) [Example 136, a mixture of rac-N-{(3R)-1-[(1R,2R)-2-(2′,6′-difluoro-5-methyl[1,1′-biphenyl]-2-yl)cyclopropane-1-carbonyl]pyrrolidin-3-yl}methanesulfonamide and rac-N-{(3S)-1-[(1R,2R)-2-(2′,6′-difluoro-5-methyl[1,1′-biphenyl]-2-yl)cyclopropane-1-carbonyl]pyrrolidin-3-yl}methanesulfonamide]
66	CS(=O)(=O)NC1CCN(C(=O)C2CC2c2ccccc2-c2cc(F)ccc2F)C1 (racemic) [Example 80, a mixture of rac-N-{(3R)-1-[(1R,2R)-2-(2′,5′-difluoro[1,1′-biphenyl]-2-yl)cyclopropane-1-carbonyl]pyrrolidin-3-yl}methanesulfonamide and rac-N-{(3S)-1-[(1R,2R)-2-(2′,5′-difluoro[1,1′-biphenyl]-2-yl)cyclopropane-1-carbonyl]pyrrolidin-3-yl}methanesulfonamide]
85	COCS(=O)(=O)NC1CCN(C(=O)C2CC2c2ccccc2-c2c(F)cccc2F)C1 (mixture of isomers) [Example 227, a mixture of N-{(3S)-1-[(1R,2R)-2-(2′,6′-difluoro[1,1′-biphenyl]-2-yl)cyclopropane-1-carbonyl]pyrrolidin-3-yl}-1-methoxymethanesulfonamide and N-{(3S)-1-[(1S,2S)-2-(2′,6′-difluoro[1,1′-biphenyl]-2-yl)cyclopropane-1-carbonyl]pyrrolidin-3-yl}-1-methoxymethanesulfonamide]
